Results as given in publication PMC6801739, “Antitumor Activity of a Novel Tyrosine Kinase Inhibitor AIU2001 Due to Abrogation of the DNA Damage Repair in Non-Small Cell Lung Cancer Cells” (International Journal of Molecular Sciences, 2019).

How the values were obtained:
MV4-11 cells = assay: CCK-8 cell viability assay; type: cell-based, human; conditions: CCK-8, 5 days
Description: (§1) Supplementary Figure 1. AIU2001 inhibited the proliferation of various cancer cells. (A and B) Human AML cells (Molm-13 and MV4-11; A) and human colorectal cancer (CRC) cells (HCT116/p53+/+ and HCT116/p53-/-; B) were treated with AIU2001 at the indicated concentrations for 5 days and viable cells were evaluated using the CCK-8 assay for AML cells and the MTT assay for CRC cells. *p < 0.05, **p < 0.01, ***p < 0.001 versus respective vehicle controls.
(§2) (also on this page, place not known: ca ncer fo r 02468 Cell viability (%) 0 1 Cell viability (%) *** *** ***) […]
(§3) Cell viability. Cytotoxicity assay of AML cells was performed using cell counting kit-8 (CCD-8; Dojindo, Japan) according to the manufacturer’s procedure. Briefly, MV4-11 or Molm-13 cells were plated in 96-well plates at a density of […] or 1 × 10^3 cells/well in triplicate, treated with AIU2001 or DMSO, and then incubated for 5 days. After adding the CCK-8 solution (10 μl) to each well and incubating the plates for 3 h, absorbance at 450 nm was measured using a microplate reader

Molm-13 cells = assay: CCK-8 cell viability assay; type: cell-based, human; conditions: CCK-8, 5 days
Description: as §1, §2, §3

cSRC = target: T1, cSRC (Homo sapiens, UniProt P12931); assay: Kinase profiling at 10 μM (Eurofins); type: biochemical; conditions: read-out: Inhibitory activity
T1 construct: purchased Eurofins Pharma Discovery (KinaseProfiler); IC50 values by Reaction Biology Corp
T1 sequence (P12931 whole entry): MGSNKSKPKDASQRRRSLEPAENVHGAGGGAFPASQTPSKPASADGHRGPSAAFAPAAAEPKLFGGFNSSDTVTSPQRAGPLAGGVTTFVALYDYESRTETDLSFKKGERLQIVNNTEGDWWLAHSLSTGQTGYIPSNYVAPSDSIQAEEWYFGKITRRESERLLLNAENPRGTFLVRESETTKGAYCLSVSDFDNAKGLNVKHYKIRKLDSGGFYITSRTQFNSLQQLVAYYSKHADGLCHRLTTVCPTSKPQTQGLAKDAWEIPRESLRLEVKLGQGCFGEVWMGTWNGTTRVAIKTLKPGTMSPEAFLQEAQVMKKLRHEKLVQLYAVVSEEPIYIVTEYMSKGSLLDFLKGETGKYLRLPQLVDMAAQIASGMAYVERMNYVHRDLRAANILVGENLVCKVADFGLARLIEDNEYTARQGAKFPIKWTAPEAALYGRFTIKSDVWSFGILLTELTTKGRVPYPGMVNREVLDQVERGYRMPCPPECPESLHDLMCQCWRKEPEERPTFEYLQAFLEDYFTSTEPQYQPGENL

ZAP-70 = target: T2, ZAP-70 (Homo sapiens, UniProt P43403); assay: Kinase profiling at 10 μM (Eurofins); type: biochemical; conditions: read-out: Inhibitory activity
T2 construct: purchased Eurofins Pharma Discovery (KinaseProfiler); IC50 values by Reaction Biology Corp
T2 sequence (P43403 whole entry): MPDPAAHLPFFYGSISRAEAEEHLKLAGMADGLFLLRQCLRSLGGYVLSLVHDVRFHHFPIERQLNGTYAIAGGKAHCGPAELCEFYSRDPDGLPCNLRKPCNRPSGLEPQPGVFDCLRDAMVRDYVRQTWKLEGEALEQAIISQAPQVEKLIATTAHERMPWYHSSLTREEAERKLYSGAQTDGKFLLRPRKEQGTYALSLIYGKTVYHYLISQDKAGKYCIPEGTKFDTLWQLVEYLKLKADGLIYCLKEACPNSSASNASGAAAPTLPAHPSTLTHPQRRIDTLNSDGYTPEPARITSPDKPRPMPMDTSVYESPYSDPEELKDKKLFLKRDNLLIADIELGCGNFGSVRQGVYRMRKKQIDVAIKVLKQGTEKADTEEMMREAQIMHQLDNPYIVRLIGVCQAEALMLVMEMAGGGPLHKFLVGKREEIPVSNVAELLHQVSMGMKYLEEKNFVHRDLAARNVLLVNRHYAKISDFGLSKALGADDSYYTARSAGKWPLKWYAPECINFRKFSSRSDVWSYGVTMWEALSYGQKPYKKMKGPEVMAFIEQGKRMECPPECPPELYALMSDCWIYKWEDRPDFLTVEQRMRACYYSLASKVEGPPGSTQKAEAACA

PKBα = target: T3, PKBα (Homo sapiens, UniProt P31749); assay: Kinase profiling at 10 μM (Eurofins); type: biochemical; conditions: read-out: Inhibitory activity
T3 construct: purchased Eurofins Pharma Discovery (KinaseProfiler); IC50 values by Reaction Biology Corp
T3 sequence (P31749 whole entry): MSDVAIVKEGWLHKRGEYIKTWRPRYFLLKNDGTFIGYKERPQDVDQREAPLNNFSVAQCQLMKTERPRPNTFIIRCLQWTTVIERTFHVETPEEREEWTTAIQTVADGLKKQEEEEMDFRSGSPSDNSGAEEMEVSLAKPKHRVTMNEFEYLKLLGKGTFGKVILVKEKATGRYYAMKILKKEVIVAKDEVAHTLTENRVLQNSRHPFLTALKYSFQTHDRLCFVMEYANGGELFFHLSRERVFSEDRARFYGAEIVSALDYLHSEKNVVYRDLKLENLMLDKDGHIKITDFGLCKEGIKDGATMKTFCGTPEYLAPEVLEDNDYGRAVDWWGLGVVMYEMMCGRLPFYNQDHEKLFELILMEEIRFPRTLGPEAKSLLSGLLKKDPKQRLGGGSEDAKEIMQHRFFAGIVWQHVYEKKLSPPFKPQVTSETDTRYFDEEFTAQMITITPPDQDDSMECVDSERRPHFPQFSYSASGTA

CDK1/cyclinB = target: T4, CDK1/cyclinB (Homo sapiens, UniProt P06493); assay: Kinase profiling at 10 μM (Eurofins); type: biochemical; conditions: read-out: Inhibitory activity
T4 construct: purchased Eurofins Pharma Discovery (KinaseProfiler); IC50 values by Reaction Biology Corp
T4 sequence (P06493 whole entry): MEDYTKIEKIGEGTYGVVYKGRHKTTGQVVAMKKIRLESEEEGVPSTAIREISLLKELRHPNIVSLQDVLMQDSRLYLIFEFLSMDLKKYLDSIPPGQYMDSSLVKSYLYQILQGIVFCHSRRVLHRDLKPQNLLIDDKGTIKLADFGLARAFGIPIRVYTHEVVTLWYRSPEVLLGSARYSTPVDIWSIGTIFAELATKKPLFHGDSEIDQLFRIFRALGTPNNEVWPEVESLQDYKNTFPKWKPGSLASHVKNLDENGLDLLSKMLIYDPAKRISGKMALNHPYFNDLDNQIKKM
T4 sequence (P14635 whole entry partner): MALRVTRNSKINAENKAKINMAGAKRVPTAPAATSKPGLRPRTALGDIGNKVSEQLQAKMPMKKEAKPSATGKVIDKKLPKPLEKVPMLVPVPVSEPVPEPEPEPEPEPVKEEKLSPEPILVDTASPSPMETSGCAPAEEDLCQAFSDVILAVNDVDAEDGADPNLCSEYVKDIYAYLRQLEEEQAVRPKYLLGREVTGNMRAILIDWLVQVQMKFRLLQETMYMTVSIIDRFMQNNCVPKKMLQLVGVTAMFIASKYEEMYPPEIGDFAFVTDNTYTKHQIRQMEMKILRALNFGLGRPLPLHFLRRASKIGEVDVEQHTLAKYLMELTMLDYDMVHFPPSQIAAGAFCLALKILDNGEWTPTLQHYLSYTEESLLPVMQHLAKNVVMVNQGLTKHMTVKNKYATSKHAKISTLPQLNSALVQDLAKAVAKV

FLT3 (ITD) = FLT3 (ITD) (Homo sapiens, UniProt P36888, ITD); assay: In vitro kinase assay, IC50 (Reaction Biology Corp.); type: biochemical
FLT4 = target: T5, FLT4 (Homo sapiens, UniProt P35916); assay: Kinase profiling at 10 μM (Eurofins); type: biochemical; conditions: read-out: Inhibitory activity
T5 construct: purchased Eurofins Pharma Discovery (KinaseProfiler); IC50 values by Reaction Biology Corp

HCT116 p53+/+ cells = assay: MTT cell viability assay; type: cell-based, human; conditions: 5 days
Description: (§4) Cell viability was assessed using the MTT colorimetric assay. Cells (1 × 10^3 cells/well) were seeded into 96-well plates and treated with the various concentrations of each compound or combination of two compounds. After five days of treatment, 10 μL MTT (0.5 mg/mL) was added, and further incubated for 3 h. After removal of the supernatant, the resultant pellet was dissolved in DMSO. The absorbance of the resultant formazan was measured at 540 nm using a plate reader (Multiskan EX; ThermoLabsystems, Waltham, MA, USA).
(§5) Supplementary Figure 1. AIU2001 inhibited the proliferation of various cancer cells. (A and B)
(§6) Human AML cells (Molm-13 and MV4-11; A) and human colorectal cancer (CRC) cells
(§7) (HCT116/p53+/+ and HCT116/p53-/-; B) were treated with AIU2001 at the indicated concentrations for
(§8) 5 days and viable cells were evaluated using the CCK-8 assay for AML cells and the MTT assay for
(§9) CRC cells. *p < 0.05, **p < 0.01, ***p < 0.001 versus respective vehicle controls.
(§10) (also on this page, place not known: ca ncer fo r 02468 Cell viability (%) 0 1 Cell viability (%) *** *** ***)

HCT116 p53-/- cells = assay: MTT cell viability assay; type: cell-based, human; conditions: 5 days
Description: as §4, §5, §6, §7, §8, §9, §10

DDR2 = target: T6, DDR2 (Homo sapiens, UniProt Q16832); assay: Kinase profiling at 10 μM (Eurofins); type: biochemical; conditions: read-out: Inhibitory activity
T6 construct: purchased Eurofins Pharma Discovery (KinaseProfiler); IC50 values by Reaction Biology Corp

CDK2/cyclinA = target: T7, CDK2/cyclinA (Homo sapiens, UniProt P24941); assay: Kinase profiling at 10 μM (Eurofins); type: biochemical; conditions: read-out: Inhibitory activity
T7 construct: purchased Eurofins Pharma Discovery (KinaseProfiler); IC50 values by Reaction Biology Corp

EGFR(T790M,L858R) = target: T8, EGFR(T790M,L858R) (Homo sapiens, UniProt P00533, L858R/T790M); assay: Kinase profiling at 10 μM (Eurofins); type: biochemical; conditions: read-out: Inhibitory activity
T8 construct: purchased Eurofins Pharma Discovery (KinaseProfiler); IC50 values by Reaction Biology Corp
T8 sequence (P00533 25-1210 T790M/L858R): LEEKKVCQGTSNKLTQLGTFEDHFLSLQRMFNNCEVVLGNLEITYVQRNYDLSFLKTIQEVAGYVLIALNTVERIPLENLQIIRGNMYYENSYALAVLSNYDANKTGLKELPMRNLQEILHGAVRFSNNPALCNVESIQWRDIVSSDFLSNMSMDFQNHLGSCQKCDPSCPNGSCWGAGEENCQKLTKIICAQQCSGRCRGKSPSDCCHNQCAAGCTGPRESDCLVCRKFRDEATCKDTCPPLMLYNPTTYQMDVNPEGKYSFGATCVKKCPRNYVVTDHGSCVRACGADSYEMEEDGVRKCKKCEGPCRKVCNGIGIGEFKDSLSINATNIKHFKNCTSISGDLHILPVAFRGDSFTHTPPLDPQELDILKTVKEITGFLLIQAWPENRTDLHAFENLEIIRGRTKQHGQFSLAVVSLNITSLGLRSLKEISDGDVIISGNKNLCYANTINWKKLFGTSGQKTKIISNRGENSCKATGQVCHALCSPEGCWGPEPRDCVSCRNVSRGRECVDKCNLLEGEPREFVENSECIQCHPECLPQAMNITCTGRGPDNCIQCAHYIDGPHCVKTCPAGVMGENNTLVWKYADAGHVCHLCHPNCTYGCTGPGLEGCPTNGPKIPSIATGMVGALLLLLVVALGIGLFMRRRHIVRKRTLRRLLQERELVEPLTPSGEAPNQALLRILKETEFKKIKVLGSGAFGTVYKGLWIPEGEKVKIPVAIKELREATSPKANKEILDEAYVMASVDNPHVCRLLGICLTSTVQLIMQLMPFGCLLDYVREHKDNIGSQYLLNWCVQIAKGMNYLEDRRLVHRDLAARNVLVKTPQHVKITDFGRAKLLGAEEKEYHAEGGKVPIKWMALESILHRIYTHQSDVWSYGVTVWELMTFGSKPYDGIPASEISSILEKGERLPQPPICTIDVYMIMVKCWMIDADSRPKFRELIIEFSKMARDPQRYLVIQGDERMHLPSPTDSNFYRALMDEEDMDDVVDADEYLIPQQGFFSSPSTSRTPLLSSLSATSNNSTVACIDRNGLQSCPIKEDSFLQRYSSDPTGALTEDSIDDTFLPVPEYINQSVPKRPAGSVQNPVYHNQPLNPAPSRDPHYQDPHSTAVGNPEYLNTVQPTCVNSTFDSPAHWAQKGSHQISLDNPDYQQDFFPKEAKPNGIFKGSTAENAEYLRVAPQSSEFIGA

c-KIT (V560G) = target: T9, c-KIT (V560G) (Homo sapiens, UniProt P10721, V560G); assay: Kinase profiling at 10 μM (Eurofins); type: biochemical; conditions: read-out: Inhibitory activity
T9 construct: purchased Eurofins Pharma Discovery (KinaseProfiler); IC50 values by Reaction Biology Corp

c-KIT (D816H) = target: T10, c-KIT (D816H) (Homo sapiens, UniProt P10721, D816H); assay: Kinase profiling at 10 μM (Eurofins); type: biochemical; conditions: read-out: Inhibitory activity
T10 construct: purchased Eurofins Pharma Discovery (KinaseProfiler); IC50 values by Reaction Biology Corp

A549 cells = assay: MTT cell viability assay, single drugs and combinations, CI scores; type: cell-based, human
Description: as §4
(§11) CI scores were calculated using the CompuSyn software by Chou (CompuSyn Inc., Paramus, NJ) based on cell viability after treatment with single- and paired-drug concentrations. The CI equation for two drugs was used: CI=(D)A/(Dx)A+(D)B/(Dx)B where (Dx)A is the concentration of drug A alone that inhibits x%, (Dx)B is the concentration of drug B alone that inhibits x%, (D)A or (D)B is the portion of drug A or drug B in the combination (D)A + (D)B that inhibits x%.

H1299 cells = assay: as above; type: cell-based, human
Description: as §4, §11

MEK1 = target: T11, MEK1 (Homo sapiens, UniProt Q02750); assay: Kinase profiling at 10 μM (Eurofins); type: biochemical; conditions: read-out: Inhibitory activity
T11 construct: purchased Eurofins Pharma Discovery (KinaseProfiler); IC50 values by Reaction Biology Corp
T11 sequence (Q02750 whole entry): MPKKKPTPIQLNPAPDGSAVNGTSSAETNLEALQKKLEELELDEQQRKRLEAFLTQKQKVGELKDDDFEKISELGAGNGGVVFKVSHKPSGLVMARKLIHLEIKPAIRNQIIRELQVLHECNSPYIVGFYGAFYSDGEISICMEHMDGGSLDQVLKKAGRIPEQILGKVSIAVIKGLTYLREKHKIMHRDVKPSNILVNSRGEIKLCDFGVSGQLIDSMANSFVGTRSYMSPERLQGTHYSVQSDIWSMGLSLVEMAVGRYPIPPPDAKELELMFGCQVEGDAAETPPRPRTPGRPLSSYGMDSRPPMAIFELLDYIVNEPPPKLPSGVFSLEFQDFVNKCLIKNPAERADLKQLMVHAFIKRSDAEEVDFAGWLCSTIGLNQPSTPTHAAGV

PKCα = target: T12, PKCα (Homo sapiens, UniProt P17252); assay: Kinase profiling at 10 μM (Eurofins); type: biochemical; conditions: read-out: Inhibitory activity
T12 construct: purchased Eurofins Pharma Discovery (KinaseProfiler); IC50 values by Reaction Biology Corp

FLT3(D835Y) = FLT3(D835Y) (Homo sapiens, UniProt P36888, D835Y); assay: In vitro kinase assay, IC50 (Reaction Biology Corp.); type: biochemical; parameters: purchased Reaction Biology Corp. (Malvern, PA, USA)
TAK1 = target: T13, TAK1 (Homo sapiens, UniProt O43318); assay: Kinase profiling at 10 μM (Eurofins); type: biochemical; conditions: read-out: Inhibitory activity
T13 construct: purchased Eurofins Pharma Discovery (KinaseProfiler); IC50 values by Reaction Biology Corp
T13 sequence (O43318 1-303 limits assumed): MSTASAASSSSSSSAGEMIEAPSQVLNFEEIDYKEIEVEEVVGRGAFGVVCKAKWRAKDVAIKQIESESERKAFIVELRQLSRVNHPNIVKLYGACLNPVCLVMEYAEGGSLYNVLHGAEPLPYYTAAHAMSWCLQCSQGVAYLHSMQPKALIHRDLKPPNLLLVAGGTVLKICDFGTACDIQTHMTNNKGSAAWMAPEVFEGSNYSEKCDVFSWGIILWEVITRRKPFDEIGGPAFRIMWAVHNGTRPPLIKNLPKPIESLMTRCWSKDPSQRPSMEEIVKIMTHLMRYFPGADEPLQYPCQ

PDGFRα(D842V) = target: T14, PDGFRα(D842V) (Homo sapiens, UniProt P16234, D842V); assay: Kinase profiling at 10 μM (Eurofins); type: biochemical; conditions: read-out: Inhibitory activity
T14 construct: purchased Eurofins Pharma Discovery (KinaseProfiler); IC50 values by Reaction Biology Corp

inhibition at 10 µM (cSRC): 22%
inhibition at 10 µM (ZAP-70): 0%
inhibition at 10 µM (PKBα): 24%
inhibition at 10 µM (CDK1/cyclinB): 38%
IC50 (FLT3 (ITD)): 0.0632 µM
inhibition at 10 µM (FLT4): ≥ 75%
inhibition at 10 µM (DDR2): 55%
inhibition at 10 µM (CDK2/cyclinA): 39%
inhibition at 10 µM (EGFR(T790M,L858R)): 4%
inhibition at 10 µM (c-KIT (V560G)): ≥ 75%
inhibition at 10 µM (c-KIT (D816H)): 48%
inhibition at 10 µM (MEK1): 0%
inhibition at 10 µM (PKCα): 9%
IC50 (FLT3(D835Y)): 0.108 µM
inhibition at 10 µM (TAK1): 15%
inhibition at 10 µM (PDGFRα(D842V)): 23%
Structure (SMILES): Brc1ccc(-c2cnc(Nc3cccc4ccccc34)o2)cc1 [AIU2001, 5-(4-bromophenyl)-N-(naphthalen-1-yl) oxazol-2-amine]
Growth inhibition (MV4-11 cells): inhibited the growth
Growth inhibition (Molm-13 cells): inhibited the growth
Growth inhibition (HCT116 p53+/+ cells): inhibited the growth
Growth inhibition (HCT116 p53-/- cells): inhibited the growth
viability at 0.16 µM (A549 cells; Homo sapiens, 120 h, Olaparib 0, AIU2001 0.16 μM, 5 days, panel A, read-out: Relative viability): 95.1%
viability at 0.32 µM (A549 cells; Homo sapiens, 120 h, Olaparib 0, AIU2001 0.32 μM, 5 days, panel A, read-out: Relative viability): 95%
viability at 0.63 µM (A549 cells; Homo sapiens, 120 h, Olaparib 0, AIU2001 0.63 μM, 5 days, panel A, read-out: Relative viability): 89%
viability at 1.25 µM (A549 cells; Homo sapiens, 120 h, Olaparib 0, AIU2001 1.25 μM, 5 days, panel A, read-out: Relative viability): 86.5%
viability at 2.5 µM (A549 cells; Homo sapiens, 120 h, Olaparib 0, AIU2001 2.50 μM, 5 days, panel A, read-out: Relative viability): 53.6%
viability at 5 µM (A549 cells; Homo sapiens, 120 h, Olaparib 0, AIU2001 5.00 μM, 5 days, panel A, read-out: Relative viability): 31.6%
viability at 10 µM (A549 cells; Homo sapiens, 120 h, Olaparib 0, AIU2001 10.00 μM, 5 days, panel A, read-out: Relative viability): 21.1%
Growth inhibition (A549 cells; MTT, five days): significantly inhibited the growth
viability at 0.16 µM (H1299 cells; Homo sapiens, NCI-H1299, 120 h, Olaparib 0, AIU2001 0.16 μM, 5 days, panel A, read-out: Relative viability): 101%
viability at 0.32 µM (H1299 cells; Homo sapiens, NCI-H1299, 120 h, Olaparib 0, AIU2001 0.32 μM, 5 days, panel A, read-out: Relative viability): 93.7%
viability at 0.63 µM (H1299 cells; Homo sapiens, NCI-H1299, 120 h, Olaparib 0, AIU2001 0.63 μM, 5 days, panel A, read-out: Relative viability): 94.2%
viability at 1.25 µM (H1299 cells; Homo sapiens, NCI-H1299, 120 h, Olaparib 0, AIU2001 1.25 μM, 5 days, panel A, read-out: Relative viability): 90%
viability at 2.5 µM (H1299 cells; Homo sapiens, NCI-H1299, 120 h, Olaparib 0, AIU2001 2.50 μM, 5 days, panel A, read-out: Relative viability): 65.5%
viability at 5 µM (H1299 cells; Homo sapiens, NCI-H1299, 120 h, Olaparib 0, AIU2001 5.00 μM, 5 days, panel A, read-out: Relative viability): 26.2%
viability at 10 µM (H1299 cells; Homo sapiens, NCI-H1299, 120 h, Olaparib 0, AIU2001 10.00 μM, 5 days, panel A, read-out: Relative viability): 15.4%
Growth inhibition (H1299 cells; MTT, five days): significantly inhibited the growth
